Source: patent publication US20230293519A1, “INTEGRIN INHIBITORS AND USES THEREOF IN COMBINATION WITH OTHER AGENTS” (Pliant Therapeutics, Inc., priority 2021, published 2023)

target: recombinant human integrin αvβ6 (Homo sapiens (Human), UniProt P06756+P18564); assay: Solid phase integrin αvβ6 binding assay; conditions: IC50 presented in four ranges; read-out: αvβ6 Inhibition IC50 (nM) - range
Method: (§1) Microplates were coated with recombinant human integrin αvβ6 (2 µg/mL) in PBS (100 µL/well 25° C., overnight). The coating solution was removed, washed with wash buffer (0.05% Tween 20; 0.5 mM MnCl2; in 1x TBS). The plate was blocked with 200 µL/well of Block Buffer (1% BSA; 5% sucrose; 0.5 mM MnCl2; in 1x TBS) at 37° C. for 2 h. Dilutions of testing compounds and recombinant TGFβ1 LAP (0.67 µg/mL) in binding buffer (0.05% BSA; 2.5% sucrose; 0.5 mM MnCl2; in 1x TBS) were added. The plate was incubated for 2 hours at 25° C., washed, and incubated for 1 hour with Biotin-Anti-hLAP. Bound antibody was detected by peroxidase-conjugated streptavidin. The IC50 values for testing compounds were calculated by a four-parameter logistic regression.
The compounds tested were compound samples prepared according to procedures described in the Synthetic Examples section, with the stereochemical purity as indicated in the Examples.
as §1, with “A third series of exemplary compounds was selected for testing in the solid phase integrin αvβ6 binding assay. The compounds tested were compound samples prepared according to procedures described in the Synthetic Examples section, with the stereochemical purity as indicated in the Examples. As in Example B1, microplates” for “Microplates”

recombinant human integrin αvβ6, sequence (P06756 31-889): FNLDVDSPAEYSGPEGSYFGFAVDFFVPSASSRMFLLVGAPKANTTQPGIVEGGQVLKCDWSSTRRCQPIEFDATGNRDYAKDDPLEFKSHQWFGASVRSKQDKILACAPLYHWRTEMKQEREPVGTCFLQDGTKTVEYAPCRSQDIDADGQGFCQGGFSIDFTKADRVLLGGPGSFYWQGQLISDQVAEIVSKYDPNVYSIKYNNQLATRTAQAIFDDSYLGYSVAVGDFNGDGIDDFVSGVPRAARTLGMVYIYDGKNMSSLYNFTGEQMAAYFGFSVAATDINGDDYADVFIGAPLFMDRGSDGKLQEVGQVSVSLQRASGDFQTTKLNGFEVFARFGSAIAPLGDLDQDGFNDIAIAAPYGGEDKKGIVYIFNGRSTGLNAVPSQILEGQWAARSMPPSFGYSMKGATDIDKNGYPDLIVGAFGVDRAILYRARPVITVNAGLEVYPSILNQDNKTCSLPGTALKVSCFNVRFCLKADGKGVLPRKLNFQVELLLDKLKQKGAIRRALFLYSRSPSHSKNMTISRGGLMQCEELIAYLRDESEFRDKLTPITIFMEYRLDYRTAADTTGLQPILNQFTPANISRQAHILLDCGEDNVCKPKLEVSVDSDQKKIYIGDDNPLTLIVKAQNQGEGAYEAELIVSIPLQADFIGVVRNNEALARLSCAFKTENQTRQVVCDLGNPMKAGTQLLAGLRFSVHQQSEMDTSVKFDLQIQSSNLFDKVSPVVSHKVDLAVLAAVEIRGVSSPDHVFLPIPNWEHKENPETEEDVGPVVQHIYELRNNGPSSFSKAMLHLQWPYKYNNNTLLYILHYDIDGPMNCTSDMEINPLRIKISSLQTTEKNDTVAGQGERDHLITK
recombinant human integrin αvβ6, sequence (P06756 890-992 partner): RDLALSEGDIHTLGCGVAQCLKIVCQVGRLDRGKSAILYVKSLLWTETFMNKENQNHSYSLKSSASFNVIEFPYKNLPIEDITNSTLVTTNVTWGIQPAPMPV
recombinant human integrin αvβ6, sequence (P18564 22-707): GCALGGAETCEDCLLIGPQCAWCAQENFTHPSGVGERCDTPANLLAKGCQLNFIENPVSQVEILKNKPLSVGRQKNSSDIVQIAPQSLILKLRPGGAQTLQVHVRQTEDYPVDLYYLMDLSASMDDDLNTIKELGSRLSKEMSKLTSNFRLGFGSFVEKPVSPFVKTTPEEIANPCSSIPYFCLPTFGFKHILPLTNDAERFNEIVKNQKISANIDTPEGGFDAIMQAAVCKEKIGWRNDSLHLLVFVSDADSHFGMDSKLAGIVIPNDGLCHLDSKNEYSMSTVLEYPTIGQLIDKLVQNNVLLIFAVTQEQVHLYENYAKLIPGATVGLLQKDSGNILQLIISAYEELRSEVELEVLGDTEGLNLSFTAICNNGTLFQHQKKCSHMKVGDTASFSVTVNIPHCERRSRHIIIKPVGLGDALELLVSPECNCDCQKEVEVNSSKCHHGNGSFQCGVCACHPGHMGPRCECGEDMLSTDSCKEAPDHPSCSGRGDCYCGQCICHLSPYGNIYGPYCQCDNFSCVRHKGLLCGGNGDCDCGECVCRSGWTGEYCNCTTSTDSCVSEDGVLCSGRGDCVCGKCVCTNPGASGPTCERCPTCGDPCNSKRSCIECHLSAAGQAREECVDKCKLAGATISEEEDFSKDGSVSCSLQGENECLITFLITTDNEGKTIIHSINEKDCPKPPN

Row | Structure (SMILES) | IC50 [nM]
1 | O=C(O)[C@H](CCN(CCCCc1ccc2c(n1)NCCC2)C1CC1)Nc1ncnc2ccccc12 [compound 6] | 50 to 250
2 | COCCN(CCCCc1ccc2c(n1)NCCC2)CC[C@H](Nc1ncnc2cc(F)ccc12)C(=O)O [compound 7] | < 50
3 | O=C(O)[C@H](CCN(CCCCc1ccc2c(n1)NCCC2)CC(F)F)Nc1ncnc2ccccc12 [compound 8] | 50 to 250
4 | O=C(O)[C@H](CCN(CCCCc1ccc2c(n1)NCCC2)C1CC(F)(F)C1)Nc1ncnc2ccccc12 [compound 9] | > 1000
5 | COCCN(CCCCc1ccc2c(n1)NCCC2)CC[C@H](Nc1nc(C)nc2ccccc12)C(=O)O [compound 10] | < 50
6 | COCCN(CCCCc1ccc2c(n1)NCCC2)CCC(Nc1ncnc2ncccc12)C(=O)O (stereo not shown) [compound 11] | < 50
7 | COCCN(CCCCc1ccc2c(n1)NCCC2)CC[C@H](Nc1nc(C)nc2cc(F)ccc12)C(=O)O [compound 12] | < 50
8 | COCCN(CCCCc1ccc2c(n1)NCCC2)CC[C@H](Nc1nc(C(F)(F)F)nc2ccccc12)C(=O)O [compound 14] | < 50
9 | COCCN(CCCCc1ccc2c(n1)NCCC2)CC[C@H](Nc1ncnc2c(C(F)(F)F)cccc12)C(=O)O [compound 15] | < 50
10 | COCCN(CCCCc1ccc2c(n1)NCCC2)CC[C@H](Nc1ncnc2cccc(F)c12)C(=O)O [compound 18] | < 50
11 | COCCN(CCCCc1ccc2c(n1)NCCC2)CC[C@H](Nc1ncnc2ccc(F)cc12)C(=O)O [compound 19] | < 50
12 | COCCN(CCCCc1ccc2c(n1)NCCC2)CC[C@H](Nc1ncnc2c(F)cccc12)C(=O)O [compound 20] | < 50
13 | COCCN(CCCCc1ccc2c(n1)NCCC2)CC[C@H](Nc1ncnc2cc(F)c(F)cc12)C(=O)O [compound 21] | < 50
14 | COCCN(CCCCc1ccc2c(n1)NCCC2)CC[C@H](Nc1cc(C(F)(F)F)nc(C)n1)C(=O)O [compound 22] | < 50
15 | COCCN(CCCCc1ccc2c(n1)NCCC2)CC[C@H](Nc1cc(C(F)F)ncn1)C(=O)O [compound 23] | < 50
16 | COCCN(CCCCc1ccc2c(n1)NCCC2)CC[C@H](Nc1ccnc(C(F)(F)F)n1)C(=O)O [compound 24] | < 50
17 | CO[C@@H](C)CN(CCCCc1ccc2c(n1)NCCC2)CC[C@H](Nc1ncnc2ccccc12)C(=O)O [compound 25] | < 50
18 | COCCN(CCCCc1ccc2c(n1)NCCC2)CC[C@H](Nc1cc(C)nc(C(F)(F)F)n1)C(=O)O [compound 26] | < 50
19 | CS(=O)(=O)CCN(CCCCc1ccc2c(n1)NCCC2)CC[C@H](Nc1ncnc2ccccc12)C(=O)O [compound 27] | < 50
20 | O=C(O)[C@H](CCN(CCCCc1ccc2c(n1)NCCC2)CCOc1ccccc1)Nc1ncnc2ccccc12 [compound 28] | < 50
21 | O=C(O)[C@H](CCN(CCCCc1ccc2c(n1)NCCC2)CCC(F)F)Nc1ncnc2ccccc12 [compound 29] | < 50
22 | O=C(O)[C@H](CCN(CCCF)CCCCc1ccc2c(n1)NCCC2)Nc1ncnc2ccccc12 [compound 30] | < 50
23 | COC[C@@H](F)CN(CCCCc1ccc2c(n1)NCCC2)CC[C@H](Nc1ncnc2ccccc12)C(=O)O [compound 31] | < 50
24 | COC[C@@H](F)CN(CCCCc1ccc2c(n1)NCCC2)CC[C@H](Nc1nc(C)nc2cc(F)ccc12)C(=O)O [compound 32] | < 50
25 | Cc1nc(N[C@@H](CCN(CCCCc2ccc3c(n2)NCCC3)CC2CC(F)(F)C2)C(=O)O)c2ccc(F)cc2n1 [compound 33] | < 50
26 | COCCN(CCCCc1ccc2c(n1)NCCC2)CC[C@H](Nc1nccc2ccccc12)C(=O)O [compound 34] | > 1000

Row | Structure (SMILES) | IC50 [nM]
27 | O=C(O)[C@H](CCN(CCCCc1ccc2c(n1)NCCC2)CCOC(F)F)Nc1ncnc2ccccc12 [compound 35] | < 50
28 | COCCN(CCCCc1ccc2c(n1)NCCC2)CC[C@H](Nc1ccnc2ccccc12)C(=O)O [compound 36] | > 1000
29 | COCCN(CCCCc1ccc2c(n1)NCCC2)CC[C@H](Nc1ncnc2cc(Cl)ccc12)C(=O)O [compound 37] | 50 to 250
30 | COCCN(CCCCc1ccc2c(n1)NCCC2)CC[C@H](Nc1ncnc2c(Cl)cccc12)C(=O)O [compound 38] | < 50
31 | O=C(O)[C@H](CCN(CCCCc1ccc2c(n1)NCCC2)CCOCC(F)(F)F)Nc1ncnc2ccccc12 [compound 39] | < 50
32 | Cc1nc(N[C@@H](CCN(CCCCc2ccc3c(n2)NCCC3)CCOc2ccc(F)cc2)C(=O)O)c2ccc(F)cc2n1 [compound 40] | < 50
33 | COc1ccc2c(N[C@@H](CCN(CCCF)CCCCc3ccc4c(n3)NCCC4)C(=O)O)ncnc2c1 [compound 41] | < 50
34 | Cc1nc(N[C@@H](CCN(CCCCc2ccc3c(n2)NCCC3)CCOC2CC2(F)F)C(=O)O)c2ccc(F)cc2n1 (stereo partly shown) [compound 42] | < 50
35 | COc1cccc2c(N[C@@H](CCN(CCCF)CCCCc3ccc4c(n3)NCCC4)C(=O)O)ncnc12 [compound 43] | < 50
36 | COCCN(CCCCc1ccc2c(n1)NCCC2)CC[C@H](Nc1cc(-n2cccn2)ncn1)C(=O)O [compound 44] | < 50
37 | Cc1cc(C)n(CCN(CCCCc2ccc3c(n2)NCCC3)CC[C@H](Nc2ncnc3ccccc23)C(=O)O)n1 [compound 45] | < 50
38 | O=C(O)[C@H](CCN(CCCCc1ccc2c(n1)NCCC2)CCOc1cc(F)cc(F)c1)Nc1ncnc2ccccc12 [compound 47] | < 50
39 | O=C(O)[C@H](CCN(CCCCc1ccc2c(n1)NCCC2)CCOc1ccccn1)Nc1ncnc2c(Cl)cccc12 [compound 48] | < 50
40 | O=C(O)[C@H](CCN(CCCCc1ccc2c(n1)NCCC2)CCOc1ccccn1)Nc1ncnc2ccccc12 [compound 49] | < 50
41 | O=C(O)[C@H](CCN(CCCCc1ccc2c(n1)NCCC2)CCOCC(F)F)Nc1ncnc2ccccc12 [compound 50] | < 50
42 | O=C(O)[C@H](CCN(CCCCc1ccc2c(n1)NCCC2)CCOCC(F)(F)F)Nc1ncnc2cccnc12 [compound 51] | < 50
43 | Cc1ncccc1OCCN(CCCCc1ccc2c(n1)NCCC2)CCC(Nc1ncnc2ccccc12)C(=O)O (stereo not shown) [compound 52] | < 50
44 | Cc1nc(N[C@@H](CCN(CCCCc2ccc3c(n2)NCCC3)CCOc2cccnc2C)C(=O)O)c2ccc(F)cc2n1 [compound 53] | < 50
45 | Cc1ncccc1OCCN(CCCCc1ccc2c(n1)NCCC2)CC[C@H](Nc1ncnc2cccnc12)C(=O)O [compound 54] | < 50
46 | CCOCCN(CCCCc1ccc2c(n1)NCCC2)CC[C@H](Nc1ncnc2ccccc12)C(=O)O [compound 55] | < 50
47 | Cc1ccc2c(N[C@@H](CCN(CCCCc3ccc4c(n3)NCCC4)CCOc3ccc(C)nc3)C(=O)O)nc(C)nc2c1 [compound 56] | < 50
48 | Cc1ccc(OCCN(CCCCc2ccc3c(n2)NCCC3)CC[C@H](Nc2ncnc3cccnc23)C(=O)O)cn1 [compound 57] | < 50
49 | O=C(O)[C@H](CCN(CCCCc1ccc2c(n1)NCCC2)CCOc1cncc(F)c1)Nc1ncnc2ccccc12 [compound 58] | < 50
50 | Cc1ccc(OCCN(CCCCc2ccc3c(n2)NCCC3)CC[C@H](Nc2ncnc3ccccc23)C(=O)O)cn1 [compound 59] | < 50
51 | O=C(O)[C@H](CCN(CCCCc1ccc2c(n1)NCCC2)CCOc1cncc(F)c1)Nc1ncnc2cccnc12 [compound 60] | < 50
52 | Cc1nc(N[C@@H](CCN(CCCCc2ccc3c(n2)NCCC3)CCOc2cncc(F)c2)C(=O)O)c2ccc(F)cc2n1 [compound 61] | < 50
